Measured values from patent EP2022493A1, “Composition comprising at least one optically active phthalamide derivative for controlling animal parasites” (Bayer CropScience AG, priority 2007, dated 2009).

Legend:
Lucilia cuprina larvae = assay: Lucilia cuprina - test (larvae); format: in vivo; details: in Ovis aries, read-out: activity (mortality in %)
Experimental: (§1) Solvent: dimethyl sulfoxide
(§2) To produce a suitable preparation of active compound, 10 mg of active compound are dissolved in 0.5 ml solvent, and the concentrate is diluted with water to the desired concentration.
Approximately 20 -30 (Lucilia cuprina larvae) are transferred into a test tube containing 1cm^3 of minced horse meat and 0.5 ml aqueous dilution of test compound.
After the specified period of time, mortality in % is determined. 100 % means that all the larvae have been killed; 0 % means that none of the larvae have been killed.

[1] = Determination of the logP values by HPLC on reversed-phase column (C 18); format: physicochemical
Experimental: Determination of the logP values:
The lambda max values were determined in the maxima of the chromatographic signals using the UV spectra from 190 nm to 400 nm.

Musca domestica = Musca domestica - test; format: in vivo; details: application rate of 100ppm, adults
Experimental: as §1, §2
Prior to the assay, a piece or kitchen sponge is soaked with a mixture of sugar and compound solution and placed into a container. 10 adults (Musca domestica) are placed into the container and closed with a perforated lid.
After the specified period of time, mortality in % is determined. 100 % means that all the flies have been killed; 0 % means that none of the flies have been killed.

Boophilus microplus = Boophilus microplus - test (injection into adult ticks); format: in vivo; details: application rate of 20 µg/animal; injected into the abdomen of adult ticks; seven days
Experimental: Boophilus microplus - test Solvent: dimethylsulfoxide To produce a suitable preparation of active compound, 1 part by weight of active compound is mixed with the stated amount of solvent, and the concentrate is diluted with containing solvent to the desired concentration. Adult ticks (Boophilus microplus) are treated by injected with compound solution of the desired concentration into the abdomen. Ticks are transferred into replica plates and incubated in a climate chamber for seven days. Eggs which are not clearly fertile or infertile are further incubated for another 35 days until larvae hatch from the untreated controls. After the specified period of time, the laying of fertile eggs in % is determined. 100 % means that all eggs have been fertile; 0 % means that none of the eggs have been fertile.

[2] = 0.001 m aqueous nh4hco3/acetonitrile, method [c]: 0.001 molar aqueous NH4HCO3 solution and acetonitrile at pH 7.8, linear gradient from 10 % to 95 % acetonitrile (v/v), HPLC reversed-phase C 18, 40 °C
[3] = 0.1% aqueous phosphoric acid/acetonitrile, method [a]: 0.1% aqueous phosphoric acid and acetonitrile at pH 2.3, linear gradient from 10 to 95 % (v/v) acetonitrile, HPLC reversed-phase C 18, 40 °C
[4] = 0.001 m aqueous nh4hco3/acetonitrile, HPLC, reversed-phase C 18, 40 °C, [c] 0.001 molar aqueous NH4HCO3 solution and acetonitrile at pH 7.8, linear gradient from 10 % to 95 % acetonitrile (v/v)
[5] = 0.1% aqueous phosphoric acid/acetonitrile, HPLC, reversed-phase C 18, 40 °C, [a] 0.1% aqueous phosphoric acid and acetonitrile at pH 2.3, linear gradient from 10 to 95 % (v/v) acetonitrile

Row | SMILES | mortality at 100 ppm (Lucilia cuprina larvae) [%] | chromatographic logP [1, 2] | chromatographic logP [1, 3] | mortality at 100 ppm (Musca domestica) [%] | activity (laying of fertile eggs in %) (Boophilus microplus) [%] | chromatographic logP [1, 4] | chromatographic logP [1, 5] | chromatographic logP ([1]; 0.1% aqueous formic acid/acetonitrile, HPLC, reversed-phase C 18, 40 °C, [b] 0.1% aqueous formic acid and acetonitrile at pH 2.7, linear gradient from 10 % to 95 % (v/v) acetonitrile)
1 | Cc1cc(C(F)(C(F)(F)F)C(F)(F)F)ccc1NC(=O)c1cccc(I)c1C(=O)N[C@@H](C)CS(C)(=O)=O [Compound 1] | ≥ 80 | 3.2 | 3.18 | ≥ 80 | ≥ 80 |  |  | 
2 | CCS(=O)(=O)C[C@H](C)NC(=O)c1c(I)cccc1C(=O)Nc1ccc(C(C(F)(F)F)C(F)(F)F)cc1C [Compound 23] | ≥ 80 |  |  | ≥ 80 |  |  |  | 
3 | CSC[C@H](C)NC(=O)c1c(I)cccc1C(=O)Nc1ccc(C(C(F)(F)F)C(F)(F)F)cc1C [Compound 24] | ≥ 80 |  |  | ≥ 80 | ≥ 80 |  |  | 
4 | Cc1cc(C(C(F)(F)F)C(F)(F)F)ccc1NC(=O)c1cccc(I)c1C(=O)N[C@@H](C)CS(C)(=O)=O [Compound 48] | ≥ 80 |  |  | ≥ 80 | ≥ 80 |  |  | 
5 | Cc1cc(C(C(F)(F)F)C(F)(F)F)ccc1NC(=O)c1cccc(I)c1C(=O)N[C@@H](C)C[S+](C)[O-] (stereo partly shown) [Compound 56] | ≥ 80 |  |  | ≥ 80 | ≥ 80 |  |  | 
6 | Cc1cc(C(F)(C(F)(F)F)C(F)(F)F)ccc1NC(=O)c1cccc(Cl)c1C(=O)N[C@@H](C)CS(C)(=O)=O [Compound 80] | ≥ 80 |  |  | ≥ 80 | ≥ 80 |  |  | 
7 | CCSC[C@H](C)NC(=O)c1c(I)cccc1C(=O)Nc1ccc(C(F)(C(F)(F)F)C(F)(F)F)c(F)c1C [Compound 105] | ≥ 80 |  | 4.71 |  | ≥ 80 |  |  | 
8 | Cc1cc(C(F)(C(F)(F)F)C(F)(F)F)ccc1NC(=O)c1cccc(Br)c1C(=O)N[C@@H](C)CS(C)(=O)=O [Compound 129] | ≥ 80 |  |  |  | ≥ 80 |  |  | 
9 | CCS(=O)(=O)C[C@H](C)NC(=O)c1c(I)cccc1C(=O)Nc1ccc(C(F)(C(F)(F)F)C(F)(F)F)c(F)c1C [Compound 130] | ≥ 80 |  | 3.47 | ≥ 80 |  |  |  | 
10 | CCS(=O)(=O)C[C@H](C)NC(=O)c1c(Br)cccc1C(=O)Nc1ccc(C(F)(F)C(F)(F)F)c(Cl)c1C [Compound 138] | ≥ 80 |  | 3.19 |  | ≥ 80 |  |  | 
11 | CCS(=O)(=O)C[C@H](C)NC(=O)c1c(I)cccc1C(=O)Nc1ccc(C(F)(F)C(F)(F)F)c(Cl)c1C [Compound 145] | ≥ 80 |  |  |  |  |  |  | 
12 | CSC[C@H](C)NC(=O)c1c(I)cccc1C(=O)Nc1ccc(C(F)(F)C(F)(F)F)c(F)c1C [Compound 146] | ≥ 80 |  | 4.04 |  | ≥ 80 |  |  | 
13 | CCSC[C@H](C)NC(=O)c1c(I)cccc1C(=O)Nc1ccc(C(F)(C(F)(F)F)C(F)(F)Br)cc1C (stereo partly shown) [Compound 154] | ≥ 80 | 4.71 | 4.68 |  | ≥ 80 |  |  | 
14 | Cc1c(NC(=O)c2cccc(I)c2C(=O)N[C@@H](C)CS(C)(=O)=O)ccc(C(F)(F)C(F)(F)F)c1F [Compound 162] | ≥ 80 |  | 2.97 | ≥ 80 |  |  |  | 
15 | CSC[C@H](C)NC(=O)c1c(I)cccc1C(=O)Nc1ccc(C(F)(F)C(F)(F)F)c(Cl)c1C [Compound 170] | ≥ 80 |  | 4.2 |  | ≥ 80 |  |  | 
16 | Cc1c(NC(=O)c2cccc(I)c2C(=O)N[C@@H](C)CS(C)(=O)=O)ccc(C(F)(C(F)(F)F)C(F)(F)F)c1F [Compound 178] | ≥ 80 |  | 3.27 | ≥ 80 |  |  |  | 
17 | Cc1c(NC(=O)c2cccc(I)c2C(=O)N[C@@H](C)CS(C)(=O)=O)ccc(C(F)(F)C(F)(F)F)c1Cl [Compound 186] | ≥ 80 |  |  |  |  |  |  | 
18 | CCS(=O)(=O)C[C@H](C)NC(=O)c1c(I)cccc1C(=O)Nc1ccc(C(F)(C(F)(F)F)C(F)(F)Br)cc1C (stereo partly shown) [Compound 194] |  |  |  |  |  | 3.47 | 3.49 | 

Row | SMILES | mortality at 100 ppm (Lucilia cuprina larvae) [%] | chromatographic logP [1, 2] | chromatographic logP [1, 3] | mortality at 100 ppm (Musca domestica) [%] | activity (laying of fertile eggs in %) (Boophilus microplus) [%] | chromatographic logP [1, 4] | chromatographic logP [1, 5] | chromatographic logP ([1]; 0.1% aqueous formic acid/acetonitrile, HPLC, reversed-phase C 18, 40 °C, [b] 0.1% aqueous formic acid and acetonitrile at pH 2.7, linear gradient from 10 % to 95 % (v/v) acetonitrile)
19 | CCSC[C@H](C)NC(=O)c1c(I)cccc1C(=O)Nc1ccc(C(C(F)F)C(F)(F)F)cc1C (stereo partly shown) [Compound 210] | ≥ 80 |  |  | ≥ 80 | ≥ 80 | 3.62 | 3.63 | 
20 | CCSC[C@H](C)NC(=O)c1c(I)cccc1C(=O)Nc1ccc(C(F)(C(F)F)C(F)(F)F)cc1C (stereo partly shown) [Compound 218] | ≥ 80 |  |  | ≥ 80 | ≥ 80 | 3.96 | 3.96 | 
21 | CCSC[C@H](C)NC(=O)c1c(I)cccc1C(=O)Nc1ccc(C(C(F)F)C(F)(F)F)cc1F (stereo partly shown) [Compound 219] |  |  |  | ≥ 80 | ≥ 80 | 3.57 | 3.57 | 
22 | C[C@@H](CS(C)(=O)=O)NC(=O)c1c(I)cccc1C(=O)Nc1ccc(C(C(F)F)C(F)(F)F)cc1Cl (stereo partly shown) [Compound 259] | ≥ 80 |  |  | ≥ 80 |  | 2.72 | 2.69 | 
23 | CSC[C@H](C)NC(=O)c1c(Br)cccc1C(=O)Nc1ccc(C(F)(C(F)F)C(F)(F)F)cc1Br (stereo partly shown) [Compound 267] | ≥ 80 |  |  |  | ≥ 80 |  | 3.81 | 
24 | C[C@@H](CS(C)(=O)=O)NC(=O)c1c(I)cccc1C(=O)Nc1ccc(C(C(F)F)C(F)(F)F)cc1Br (stereo partly shown) [Compound 275] | ≥ 80 |  |  | ≥ 80 |  | 2.76 | 2.71 | 
25 | C[C@@H](CS(C)(=O)=O)NC(=O)c1c(I)cccc1C(=O)Nc1ccc(C(F)(C(F)F)C(F)(F)F)cc1F (stereo partly shown) [Compound 283] | ≥ 80 |  |  | ≥ 80 |  | 2.76 | 2.72 | 
26 | CCS(=O)(=O)C[C@H](C)NC(=O)c1c(I)cccc1C(=O)Nc1ccc(C(F)(C(F)F)C(F)(F)F)cc1F (stereo partly shown) [Compound 307] | ≥ 80 |  |  | ≥ 80 |  | 2.94 | 2.89 | 
27 | Cc1c(NC(=O)c2cccc(I)c2C(=O)N[C@@H](C)C[S+](C)[O-])ccc(C(F)(C(F)(F)F)C(F)(F)F)c1F (stereo partly shown) [Compound 331] | ≥ 80 |  |  |  | ≥ 80 |  | 2.78 | 
28 | CC[S+]([O-])C[C@H](C)NC(=O)c1c(I)cccc1C(=O)Nc1ccc(C(F)(C(F)(F)F)C(F)(F)F)c(F)c1C (stereo partly shown) [Compound 339] | ≥ 80 |  |  |  | ≥ 80 |  | 2.97 | 
29 | CCS(=O)(=O)C[C@H](C)NC(=O)c1c(Cl)cccc1C(=O)Nc1ccc(C(F)(F)C(F)(F)F)c(Cl)c1C [Compound 347] | ≥ 80 |  |  |  | ≥ 80 |  | 3.14 | 
30 | CSC[C@H](C)NC(=O)c1c(Cl)cccc1C(=O)Nc1ccc(C(F)(F)C(F)(F)F)c(F)c1C [Compound 355] | ≥ 80 |  |  |  | ≥ 80 |  |  | 3.94
31 | CCSC[C@H](C)NC(=O)c1c(Cl)cccc1C(=O)Nc1ccc(C(F)(F)C(F)(F)F)c(F)c1C [Compound 380] |  |  | 4.21 |  |  |  |  | 
32 | CSC[C@H](C)NC(=O)c1c(Br)cccc1C(=O)Nc1ccc(C(F)(F)C(F)(F)F)c(F)c1C [Compound 388] | ≥ 80 |  | 3.93 |  | ≥ 80 |  |  | 
33 | Cc1c(NC(=O)c2cccc(Br)c2C(=O)N[C@@H](C)CS(C)(=O)=O)ccc(C(F)(F)C(F)(F)F)c1F [Compound 389] | ≥ 80 |  | 2.86 |  | ≥ 80 |  |  | 
34 | CSC[C@H](C)NC(=O)c1c(Cl)cccc1C(=O)Nc1ccc(C(F)(C(F)(F)F)C(F)(F)F)cc1C [Compound 390] | ≥ 80 |  |  | ≥ 80 | ≥ 80 |  |  | 
35 | Cc1cc(C(C(F)(F)F)C(F)(F)F)c(F)cc1NC(=O)c1cccc(Br)c1C(=O)N[C@@H](C)C[S+](C)[O-] (stereo partly shown) [Compound 422] | ≥ 80 | 2.51 | 2.58 |  | ≥ 80 |  |  | 
